Laboratory results taken from patent US20240336622A1 (The Board of Regents of The University of Texas System, priority 2021, published 2024).
Read-outs that look alike come from different tables or passages of the source.

Test system: UWB1 cells
Experiment: cells
[1] = read-out: IC50 (μM) UWB1 cells, UWB1 cell viability

COC(=O)C[C@H]1[C@]2(C)C3=C(C)[C@@H](c4ccc(O[Si](C)(C)C(C)(C)C)cc4)C[C@H]3O[C@@H]2[C@@H]2OC(=O)[C@]3(C)C=CC(=O)[C@@]1(C)[C@@H]23 (stereo in doubt) [S-120]
IC50 (read-out: IC50 (μM) UWB1 cells): 0.165 µM

C=C1[C@H](O[Si](C)(C)C)[C@H](O[Si](C)(C)C)[C@@H]2[C@](C)(C(=O)C=C[C@@]2(C)C(=O)OC)[C@H]1CC(=O)OC [S-16-a]
IC50 (read-out: IC50 (μM) UWB1 cells): > 10 µM

C=C1[C@H](O)[C@H](O)[C@@H]2[C@](C)(C(=O)C=C[C@@]2(C)C(=O)OC)[C@H]1CC(=O)OC [S-16-b]
IC50 [1]: > 10 µM

C=C1[C@H](O)[C@@H]2OC(=O)[C@]3(C)C=CC(=O)[C@@](C)([C@@H]23)[C@H]1CC(=O)OC [S-16]
IC50 [1]: > 10 µM

C=C1[C@H](O[C@H]2C=C(C)[C@H](c3ccoc3)C2)[C@@H]2OC(=O)[C@]3(C)C=CC(=O)[C@@](C)([C@@H]23)[C@H]1CC(=O)OC [S-26-1]
IC50 [1]: 0.265 µM

C=C1[C@H](O[C@H]2C[C@@H](c3ccoc3)C(C)=C2I)[C@@H]2OC(=O)[C@]3(C)C=CC(=O)[C@@](C)([C@@H]23)[C@H]1CC(=O)OC [S-27]
IC50 (read-out: IC50 (μM) UWB1 cells): 0.415 µM

CC[Si](CC)(CC)O[C@H]1C(=O)[C@H](CC(=O)OC)[C@@]2(C)C=CC(=O)[C@@]3(C)C(=O)O[C@@H]1[C@@H]32 [S-38]
IC50 (read-out: IC50 (μM) UWB1 cells): > 10 µM

COC(=O)C[C@H]1[C@]2(C)C3=C(C)[C@H](c4ccoc4Br)C[C@H]3O[C@@H]2[C@@H]2OC(=O)[C@]3(C)C=CC(=O)[C@@]1(C)[C@@H]23 [S-41]
IC50 [1]: 0.465 µM

COC(=O)C[C@H]1[C@]2(C)C3=C(C)[C@H](c4ccoc4-c4cccc5c4ccn5C)C[C@H]3O[C@@H]2[C@@H]2OC(=O)[C@]3(C)C=CC(=O)[C@@]1(C)[C@@H]23 [S-42]
IC50 [1]: 0.144 µM

COC(=O)C[C@H]1[C@]2(C)C3=C(C)[C@H](c4ccoc4-c4ccc(OC)nc4)C[C@H]3O[C@@H]2[C@@H]2OC(=O)[C@]3(C)C=CC(=O)[C@@]1(C)[C@@H]23 [S-43]
IC50 [1]: 0.208 µM

COC(=O)C[C@H]1[C@]2(C)C3=C(C)[C@H](c4ccoc4-c4ccc5c(c4)OCO5)C[C@H]3O[C@@H]2[C@@H]2OC(=O)[C@]3(C)C=CC(=O)[C@@]1(C)[C@@H]23 [S-44]
IC50 [1]: 0.383 µM

COC(=O)C[C@H]1[C@]2(C)C3=C(C)[C@H](c4ccoc4-c4ccc(C=O)cc4)C[C@H]3O[C@@H]2[C@@H]2OC(=O)[C@]3(C)C=CC(=O)[C@@]1(C)[C@@H]23 [S-45]
IC50 [1]: 0.251 µM

COC(=O)C[C@H]1[C@]2(C)C3=C(C)[C@H](c4ccoc4-c4ccoc4)C[C@H]3O[C@@H]2[C@@H]2OC(=O)[C@]3(C)C=CC(=O)[C@@]1(C)[C@@H]23 [S-47]
IC50 [1]: 0.296 µM

COC(=O)C[C@H]1[C@]2(C)C3=C(C)[C@H](c4ccoc4-c4ccc(OC)cc4C)C[C@H]3O[C@@H]2[C@@H]2OC(=O)[C@]3(C)C=CC(=O)[C@@]1(C)[C@@H]23 [S-48]
IC50 [1]: 0.212 µM

COC(=O)C[C@H]1[C@]2(C)C3=C(C)[C@H](c4ccoc4-c4ccc([N+](=O)[O-])cc4)C[C@H]3O[C@@H]2[C@@H]2OC(=O)[C@]3(C)C=CC(=O)[C@@]1(C)[C@@H]23 [S-49]
IC50 [1]: 0.194 µM

COC(=O)C[C@H]1[C@]2(C)C3=C(C)[C@H](C4=CC(=O)OC4OC(C)=O)C[C@H]3O[C@@H]2[C@@H]2OC(=O)[C@]3(C)C=CC(=O)[C@@]1(C)[C@@H]23 (stereo partly shown) [S-50]
IC50 [1]: 1.04 µM

COC(=O)C[C@H]1[C@]2(C)C3=C(C)[C@H](c4ccoc4-c4ccc(C(=O)NC(C)(C)C)cc4)C[C@H]3O[C@@H]2[C@@H]2OC(=O)[C@]3(C)C=CC(=O)[C@@]1(C)[C@@H]23 [S-52]
IC50 [1]: 0.199 µM

CCC(C)NC(=O)c1ccc(-c2occc2[C@@H]2C[C@H]3O[C@@H]4[C@@H]5OC(=O)[C@]6(C)C=CC(=O)[C@](C)([C@@H](CC(=O)OC)[C@]4(C)C3=C2C)[C@@H]56)cc1 (stereo partly shown) [S-53]
IC50 [1]: 0.17 µM

C=C1[C@H](O[C@H]2C=C(C)[C@H](c3ccoc3)C2)[C@@H]2OC(=O)[C@]3(C)C=CC(=O)[C@@](C)([C@@H]23)[C@H]1CC(=O)OC [S-54]
IC50 [1]: 0.265 µM

COC(=O)C[C@H]1[C@]2(C)C3=C(C)[C@H](c4ccoc4)C[C@H]3O[C@@H]2[C@@H]2OC(=O)[C@]3(C)C=C[C@@H](O)[C@@]1(C)[C@@H]23 [S-55]
IC50 [1]: > 10 µM

COC(=O)C[C@H]1[C@]2(C)C3=C(C)[C@H](c4ccoc4-c4ccccc4OC)C[C@H]3O[C@@H]2[C@H](O)[C@H]2C(C)=CCC(=O)[C@]12C [S-56]
IC50 [1]: > 10 µM

COC(=O)C[C@H]1[C@@H]2CC3=C(C)[C@H](c4ccoc4)C[C@@H]3O[C@@H]2[C@@H]2OC(=O)[C@]3(C)C=CC(=O)[C@@]1(C)[C@@H]23 [S-57]
IC50 [1]: 0.591 µM

COC(=O)C[C@H]1[C@]2(C)C3=C(C)[C@H](c4ccoc4-c4ccc(C(=O)O)cc4)C[C@H]3O[C@@H]2[C@@H]2OC(=O)[C@]3(C)C=CC(=O)[C@@]1(C)[C@@H]23 [S-58]
IC50 [1]: 1.79 µM

COC(=O)C[C@H]1[C@]2(C)C3=C(C)[C@H](c4ccoc4-c4ccc(C(=O)OC)cc4)C[C@H]3O[C@@H]2[C@@H]2OC(=O)[C@]3(C)C=CC(=O)[C@@]1(C)[C@@H]23 [S-59]
IC50 [1]: 0.203 µM

COC(=O)C[C@H]1[C@]2(C)C3=C(C)[C@H](c4ccoc4)C[C@H]3O[C@@H]2[C@@H]2OC(=O)[C@]3(C)CCC(=O)[C@@]1(C)[C@@H]23 [S-60, 2,3-dihydronimbolide]
IC50 [1]: > 10 µM

COC(=O)C[C@H]1[C@]2(C)C3=C(C)[C@H](c4ccoc4)C[C@H]3O[C@@H]2[C@H](O)[C@H]2C(C)=CCC(=O)[C@]12C [S-61, 6-deacetylnimbinene]
IC50 [1]: > 10 µM

COC(=O)C[C@H]1[C@]2(C)C3=C(C)[C@H](c4ccoc4)C[C@H]3O[C@@H]2[C@H](OC(C)=O)[C@H]2C(C)=CCC(=O)[C@]12C [S-62, nimbinene]
IC50 [1]: > 10 µM

COC(=O)C[C@H]1[C@]2(C)C3=C(C)[C@H](c4ccoc4)C[C@H]3O[C@@H]2[C@H](O)[C@@H]2[C@]1(C)C(=O)C=C[C@@]2(C)C(=O)OC [S-63, 6-deacetylnimbin]
IC50 [1]: > 10 µM

COC(=O)C[C@H]1[C@]2(C)C3=C(C)[C@H](c4ccoc4)C[C@H]3O[C@@H]2[C@H](OC(C)=O)[C@@H]2[C@]1(C)C(=O)C=C[C@@]2(C)C(=O)OC [S-64, nimbin]
IC50 [1]: > 10 µM

COC(=O)C[C@@H]1[C@@]2(C)C(=O)C=C[C@@]3(C)C(=O)O[C@@H]([C@H]4O[C@H]5CC(c6ccoc6)=C(C)[C@]56C[C@@]416)[C@H]23 [S-65]
IC50 [1]: > 10 µM

COC(=O)C[C@H]1[C@]2(C)C3=C(C)CC[C@H]3O[C@@H]2[C@@H]2OC(=O)[C@]3(C)C=CC(=O)[C@@]1(C)[C@@H]23 [S-97]
IC50 [1]: 1.45 µM

COC(=O)C[C@H]1[C@@H]2CC3=C(C)CC[C@@H]3O[C@@H]2[C@@H]2OC(=O)[C@]3(C)C=CC(=O)[C@@]1(C)[C@@H]23 [S-98]
IC50 (read-out: IC50 (μM) UWB1 cells): 0.83 µM

COC(=O)C[C@H]1[C@@H]2CC3=C(C)[C@@H](c4ccoc4)C[C@@H]3O[C@@H]2[C@@H]2OC(=O)[C@]3(C)C=CC(=O)[C@@]1(C)[C@@H]23 [S-99]
IC50 [1]: 0.88 µM

COC(=O)C[C@H]1[C@]2(C)C3=C(C)[C@H](c4ccccc4)C[C@H]3O[C@@H]2[C@@H]2OC(=O)[C@]3(C)C=CC(=O)[C@@]1(C)[C@@H]23 [S-101]
IC50 [1]: 0.3 µM

COC(=O)C[C@H]1[C@@H]2CC3=C(C)[C@H](c4ccccc4)C[C@@H]3O[C@@H]2[C@@H]2OC(=O)[C@]3(C)C=CC(=O)[C@@]1(C)[C@@H]23 [S-102]
IC50 [1]: 0.17 µM

COC(=O)C[C@H]1[C@@H]2CC3=C(C)[C@@H](c4ccccc4)C[C@@H]3O[C@@H]2[C@@H]2OC(=O)[C@]3(C)C=CC(=O)[C@@]1(C)[C@@H]23 [S-103]
IC50 [1]: 0.16 µM

COC(=O)C[C@H]1[C@]2(C)C3=C(C)[C@H](C4CCCCC4)C[C@H]3O[C@@H]2[C@@H]2OC(=O)[C@]3(C)C=CC(=O)[C@@]1(C)[C@@H]23 [S-104]
IC50 [1]: 0.21 µM

COC(=O)C[C@H]1[C@@H]2CC3=C(C)[C@H](C4CCCCC4)C[C@@H]3O[C@@H]2[C@@H]2OC(=O)[C@]3(C)C=CC(=O)[C@@]1(C)[C@@H]23 [S-105]
IC50 [1]: 0.2 µM

COC(=O)C[C@H]1[C@@H]2CC3=C(C)[C@@H](C4CCCCC4)C[C@@H]3O[C@@H]2[C@@H]2OC(=O)[C@]3(C)C=CC(=O)[C@@]1(C)[C@@H]23 [S-106]
IC50 [1]: 0.16 µM

COC(=O)C[C@H]1[C@]2(C)C3=C(C)[C@H](c4ccc(OC)cc4)C[C@H]3O[C@@H]2[C@@H]2OC(=O)[C@]3(C)C=CC(=O)[C@@]1(C)[C@@H]23 [S-107]
IC50 [1]: 0.27 µM

COC(=O)C[C@H]1[C@@H]2CC3=C(C)[C@H](c4ccc(OC)cc4)C[C@@H]3O[C@@H]2[C@@H]2OC(=O)[C@]3(C)C=CC(=O)[C@@]1(C)[C@@H]23 [S-108]
IC50 [1]: 0.11 µM

COC(=O)C[C@H]1[C@@H]2CC3=C(C)[C@@H](c4ccc(OC)cc4)C[C@@H]3O[C@@H]2[C@@H]2OC(=O)[C@]3(C)C=CC(=O)[C@@]1(C)[C@@H]23 [S-109]
IC50 [1]: 0.17 µM

C=C1[C@H](O[C@H]2CCC(C(C)C)=C2I)[C@@H]2OC(=O)[C@]3(C)C=CC(=O)[C@@](C)([C@@H]23)[C@H]1CC(=O)OC [S-111]
IC50 [1]: 0.255 µM

COC(=O)C[C@H]1[C@]2(C)C3=C(C)[C@H](c4cccc(O[Si](C)(C)C(C)(C)C)c4)C[C@H]3O[C@@H]2[C@@H]2OC(=O)[C@]3(C)C=CC(=O)[C@@]1(C)[C@@H]23 [S-112]
IC50 (read-out: IC50 (μM) UWB1 cells): 0.219 µM

C#CCOC(=O)c1ccc(-c2occc2[C@@H]2C[C@H]3O[C@@H]4[C@@H]5OC(=O)[C@]6(C)C=CC(=O)[C@](C)([C@@H](CC(=O)OC)[C@]4(C)C3=C2C)[C@@H]56)cc1 [S-112a]
IC50 [1]: 0.198 µM

COC(=O)C[C@H]1[C@@H]2CC3=C(C)[C@H](c4cccc(O[Si](C)(C)C(C)(C)C)c4)C[C@@H]3O[C@@H]2[C@@H]2OC(=O)[C@]3(C)C=CC(=O)[C@@]1(C)[C@@H]23 [S-113]
IC50 (read-out: IC50 (μM) UWB1 cells): 0.216 µM

COC(=O)C[C@H]1[C@]2(C)C3=C(C)[C@@H](c4cccc(O[Si](C)(C)C(C)(C)C)c4)C[C@H]3O[C@@H]2[C@@H]2OC(=O)[C@]3(C)C=CC(=O)[C@@]1(C)[C@@H]23 [S-114]
IC50 (read-out: IC50 (μM) UWB1 cells): 0.242 µM

COC(=O)C[C@H]1[C@@H]2CC3=C(C)[C@@H](c4cccc(O[Si](C)(C)C(C)(C)C)c4)C[C@H]3O[C@@H]2[C@@H]2OC(=O)[C@]3(C)C=CC(=O)[C@@]1(C)[C@@H]23 [S-115]
IC50 (read-out: IC50 (μM) UWB1 cells): 0.196 µM

COC(=O)C[C@H]1[C@@H]2CC3=C(C)[C@@H](c4cccc(O[Si](C)(C)C(C)(C)C)c4)C[C@@H]3O[C@@H]2[C@@H]2OC(=O)[C@]3(C)C=CC(=O)[C@@]1(C)[C@@H]23 [S-116]
IC50 (read-out: IC50 (μM) UWB1 cells): 0.15 µM
